Results as given in patent publication US20060122234A1, “Substituted thienyl-hydroxamic acids as histone deacetylase inhibitors” (Argenta Discovery Limited, priority 2002, published 2006).

Legend:
[1] = tested on: histone deacetylase activity (total lysates from K562 cells or HeLa nuclear extracts); experiment: Deacetylase assay (primary assay), fluorescent acetylated-lysine substrate; type: biochemical, human; details: 30 minutes, 116 μM fluorescent substrate, 1% DMSO; read-out: IC50 (histone deacetylase enzymatic activity)
Description: Compounds are tested for their capacity to inhibit histone deacetylase activity (primary assay) and for their biological effects on growing cells (secondary assay).
Total lysates from K562 chronic human myelogenous leukemia cells (obtained from American Type Culture Collection, Rockville, Md.) are used as source of HDAC activity. Cells are grown in RPMI media supplied with 10% FCS, harvested by centrifugation, washed once in PBS and resuspended at a density of 24×10^6/ml in HDA buffer (15 mM Potassium phosphate pH 7.5, 5% glycerol, 0.2 mM EDTA). After sonication, lysates are centrifuged at 1000 g for 20 minutes and the resulting supernatant is aliquoted and stored at −80° C. Alternatively, commercially available HeLa nuclear extracts (BIOMOL) are used as source of histone deacetylase activity.
The assay was carried out for 30 minutes using 116 μM of a fluorescent substrate containing an acetylated lysine (BIOMOL). When deacetylation of the lysine occurs, the substrate can react with the added developer producing a fluorophore. The amount of fluorophore produced is proportional to the HDAC activity in the sample and is quantified using a multiwell fluorimeter capable of excitation at 360 nm and detection at 450 nm.
Compounds are diluted in DMSO prior to addition to assay buffer, the final DMSO concentration in the assay being 1%.
The percent activity of the compounds in reducing histone deacetylase enzymatic activity is calculated as follow: % activity={(F^S−B)/(F^C−B)}×100 where: […]
F^S is the fluorescence at 450 nm in the presence of the tested compound (Sample).
F^C is the fluorescence at 450 nm in the presence of vehicle 1% DMSO (Control). B is the fluorescence at 450 nm in the absence of enzyme (Background fluorescence)
(§1) The IC50 is defined as the concentration at which a given compound achieves 50% activity. IC50 values are calculated using the XLfit software package (version 2.0.5).

[2] = tested on: MDA-MB-231 human mammary gland adenocarcinoma cells; experiment: Cell proliferation assay (secondary assay), CyQUANT, MDA-MB-231; type: cell-based; details: MDA-MB-231, 72h exposure, 0.1% DMSO
Description: (§2) Compounds are tested in a cell proliferation assay using the following cell lines:
MDA-MB-231 are kept in L-15 (Leibovitz) medium (Gibco) supplemented with 15% FCS at 37° C. in a non-modified atmosphere, humidified incubator.
(§3) Cells are seeded in 96-well plates at a density of 20,000 cells/ml (3,000 cells/well) and after 24 h they are exposed to different concentrations of compounds in 0.1% DMSO. Cells are grown for a further 72h, the media is removed and the cells are frozen at −80° C. for at least 30 minutes and lysed in a solution containing the CyQUANT dye. […] Therefore the fluorescence intensity is proportional to the number of cells present in each well and can be quantified using a multiwell fluorimeter by measuring the fluorescence of the solution at 520 nm.
(§4) The percent activity of the compounds in reducing cell number is calculated as follow: % activity={(A^S−B)/(A^C−B)}×100 where: […]
(§5) A^S is the fluorescence at 520 nm in the presence of the tested compound (Sample).
(§6) A^C is the fluorescence at 520 nm in the presence of vehicle 0.1% DMSO (Control).
(§7) B is the fluorescence at 520 nm in the absence of cells (Background fluorescence).
as §1

[3] = tested on: MCF-7 human mammary gland adenocarcinoma cells; experiment: Cell proliferation assay (secondary assay), CyQUANT, MCF-7; type: cell-based; details: MCF7, MCF-7, 72h exposure, 0.1% DMSO
Description: as §2
Both cell lines are free of Mycoplasma contamination (PCR Mycoplasma Detection Set, Takara). MCF-7 are kept in MEM medium (Gibco) supplemented with 10% FCS and 1% Non Essential Amino Acids at 37° C. in a 5% CO2 humidified incubator.
as §3, §4, §5, §6, §7, §1

SMILES | IC50 [1] | IC50 [2] | IC50 [3]
O=C(NO)c1ccc(-c2ccc(NCc3cc4ccccc4o3)cn2)s1 [Example 1 (ba), 5-{5-[(Benzofuran-2-ylmethyl)-amino]-pyridin-2-yl}-thiophene-2-carboxylic acid hydroxyamide] | 62 nM | 2 µM | 600 nM
O=C(NO)c1ccc(-c2ccccc2)s1 [Example 1 (g), 5-Phenyl-thiophene-2-carboxylic acid hydroxyamide] | 900 nM | 44 µM | 31000 nM
O=C(NO)c1ccc(-c2nccc(OCc3ccccc3)n2)s1 [Example 1 (z), 5-(4-Benzyloxy-pyrimidin-2-yl)-thiophene-2-carboxylic acid hydroxyamide] | 76 nM | 7.3 µM | 2300 nM
Cn1nc(C(F)(F)F)cc1-c1ccc(C(=O)NO)s1 [Example 1 (a), 5-(2-Methyl-5-trifluoromethyl-2H-pyrazol-3-yl)-thiophene-2-carboxylic acid hydroxyamide] |  | 32 µM | 11000 nM

Next, values leading:

IC50 [1] | IC50 [2] | IC50 [3] | SMILES
153 nM | 4.5 µM | 2100 nM | O=C(NO)c1ccc(-c2ccn(Cc3ccccc3)n2)s1 [Example 1 (l), 5-(1-Benzyl-1H-pyrazol-3-yl)-thiophene-2-carboxylic acid hydroxyamide]
242 nM |  |  | NS(=O)(=O)c1cccc(NC(=O)Cn2ccc(-c3ccc(C(=O)NO)s3)n2)c1 [Example 1 (dc), 5-{1-[(3-Sulfamoyl-phenylcarbamoyl)-methyl]-1H-pyrazol-3-yl}-thiophene-2-carboxylic acid hydroxyamide]
